Source: patent publication US20180057547A1, “DIAGNOSTIC AND THERAPEUTIC EPITOPE, AND TRANSGENIC PLANT” (OXFORD UNIVERSITY INNOVATION LIMITED, priority 1999, published 2018)
“Also recorded” adds a separate entry of the source.

Key:
[1] = test system: PBMC from coeliac volunteers; assay: Antagonism of A-gliadin 57-73 QE65 interferon gamma ELISPOT response (simultaneous addition of peptide); format: cell-based, human
Protocol: Simultaneous addition of peptide (50 μg/ml) or buffer and A-gliadin 57-73 QE65 (10 μg/ml) in IFNgamma ELISPOT using PBMC from coeliac volunteers 6 days after commencing 3 day gluten challenge (n=5). Results were expressed as response with peptide plus A-G 57-73 QE65 (mean of duplicates) as % response with buffer plus A-G 57-73 QE65 (mean of 20 replicates). (See Table 9).

[2] = test system: PBMC from coeliac subjects; assay: IFNγ ELISPOT with PBMC of coeliac disease subjects after bread/gluten challenge; format: cell-based, human; settings: for % bioactivity compared to unmodified A-gliadin 57-73 QE65 / greater bioactivity than the parent peptide: 50 mcg/ml; for % bioactivity compared to unmodified A-gliadin 57-73 QE65: PBMC from 8 subjects, mean response as % A-G 57-73 QE65 mean response, blank 7.1%; for Mean response as % of the response to the immunodominant epitope: 57-73 A-gliadin epitope substituted at position 65, synthetic peptides 50 μg/ml, 3 coeliac subjects, 6 days after commencing gluten challenge; for % agonist.: agonist activity compared to A-gliadin 57-73 QE65 as shown in Table 9; for greater bioactivity than the parent peptide: parent A-gliadin 57-73 QE65; for ELISpot response as % A-gliadin 57-73 QE65, E-substituted: glutamate-substituted peptide; for ELISpot response as % A-gliadin 57-73 QE65, E-substituted / ELISpot response as % A-gliadin 57-73 QE65, Wildtype + tTG / ELISpot response as % A-gliadin 57-73 QE65, Wild type: 25 mcg/ml, 4 subjects, blank 5 (1) %; for ELISpot response as % A-gliadin 57-73 QE65, Wildtype + tTG: tTG-treated wild type peptide; for ELISpot response as % A-gliadin 57-73 QE65, Wild type: unmodified gliadin peptide; for Elisopt response TG: peptide treated with transglutaminase; for Elisopt response TG / Elisopt response No TG: mean (range), 3 subjects, as in Example 2; for Elisopt response No TG: peptide without transglutaminase treatment
[3] = test system: PBMC from newly diagnosed coeliac subjects; assay: Interferon gamma ELISpot with PBMC of newly diagnosed coeliac subjects, gluten challenge after short GFD; format: cell-based, human; settings: 25 mcg/ml
Protocol: Newly diagnosed DQ2+ coeliac subjects were recruited from the gastroenterology outpatient service. PBMC were prepared and tested in interferon gamma ELISpot assays before subjects commenced GFD, and at one or two weeks after commencing GFD. In addition, gluten challenge (3 days consuming 4 slices standard white bread, 200 g/day) was performed at one or two weeks after starting GFD. PBMC were prepared and assayed on day six are after commencing gluten challenge. A-gliadin 57-73 QE65 (A), P04724 84-100 QE92 (B) (alone and combined) and A-gliadin 57-73 QP65 (P65) (non-bioactive variant, see above) (all 25 mcg/ml) were assessed.

[4] = test system: CD4 or CD8 depleted PBMC from coeliac disease subjects; assay: IFNγ ELISPOT with CD4 and CD8 magnetic bead depleted PBMC; format: cell-based, human
Protocol: Anti-CD4 or anti-CD8 coated magnetic beads (Dynal, Oslo, Norway) were washed four times with RPMI then incubated with PBMC in complete RPMI containing 10% heat inactivated human AB serum (5×10^6 cells/ml) for 30 minutes on ice. Beads were removed using a magnet and cells remaining counted. […] HLA-class II restriction of the immune response to tTG-treated A-gliadin 56-75 was established by incubating PBMC (5×10^6 cells/ml) with anti-HLA-DR (L243), -DQ (L2), and -DP (B7.21) monoclonal antibodies (10 μg/ml) at room temperature for one hour prior to the addition of peptide.

[5] = test system: gluten-specific T cell clones and lines; settings: from original publications; iTCC intestinal T cell clone, iTCL intestinal polyclonal T cell line, bTCC peripheral blood T cell clone; NS not given; cited from earlier work
[6] = substituted variant 50 μg/ml plus A-gliadin 57-73 QE65 10 μg/ml, n=5
[7] = naturally occurring polymorphisms of A-gliadin 57-73 QE65, 50 μg/ml plus A-gliadin 57-73 QE65 10 μg/ml
[8] = coeliacs who had followed GFD for only one week
[9] = gluten challenge 2 weeks after commencing GFD, compared with A-gliadin 57-73 QP65 and blank

## N=C(N)NCCC[C@H](N)C(=O)O [R65]
[1]; [6]
  % Inhibit. of A-gliadin 57-73 QE65 interferon gamma ELISpot response: 13%
[2]
  % bioactivity compared to unmodified A-gliadin 57-73 QE65: 11%
  % agonist.: 11%
[2]; listed as Arginine
  Mean response as % of the response to the immunodominant epitope: 1%

## PQPQPFPPELPYPQPQS [P04725 82-98 QE90, glutamate-substituted polymorphism GDA5_WHEAT P04725 82-98 (N)]
[1]; [7]
  % Inhibit. of A-gliadin 57-73 QE65 interferon gamma ELISpot response: 19%

## N[C@@H](Cc1ccc(O)cc1)C(=O)O [Y65]
[1]; [6]
  % Inhibit. of A-gliadin 57-73 QE65 interferon gamma ELISpot response: 12%
[2]; listed as Tyrosine
  Mean response as % of the response to the immunodominant epitope: 8%
[2]
  % agonist.: 7%

## QLQPFPQPELPYSQPQP [P02863 77-93 QE85, glutamate-substituted polymorphism GDA0_WHEAT P02863 77-93 (F)]
[1]; [7]
  % Inhibit. of A-gliadin 57-73 QE65 interferon gamma ELISpot response: 6%

## Y61: A-gliadin 57-73 QE65 variant, Y at position 61 (QLQPYPQPELPYPQPQS)
[2]
  % bioactivity compared to unmodified A-gliadin 57-73 QE65: 129%
  greater bioactivity than the parent peptide: 30%

## NCCCC[C@H](N)C(=O)O [K65]
[1]; [6]
  % Inhibit. of A-gliadin 57-73 QE65 interferon gamma ELISpot response: 15%
[2]
  % bioactivity compared to unmodified A-gliadin 57-73 QE65: 8%
  % agonist.: 8%
[2]; listed as Lysine
  Mean response as % of the response to the immunodominant epitope: 4%

## QQYPSGEGSFQPSQENPQ [reference compound]
[2]
  ELISpot response as % A-gliadin 57-73 QE65, E-substituted: 14 (8) %
  ELISpot response as % A-gliadin 57-73 QE65, Wildtype + tTG: 9 (3) %
  ELISpot response as % A-gliadin 57-73 QE65, Wild type: 10 (3) %

## QQLPQPEQPQQSFPEQERPF [reference compound]
[2]
  ELISpot response as % A-gliadin 57-73 QE65, E-substituted: 10 (5) %
  ELISpot response as % A-gliadin 57-73 QE65, Wildtype + tTG: 18 (7) %
  ELISpot response as % A-gliadin 57-73 QE65, Wild type: 9 (3) %

## PQLPYPQPELPYPQPQP [P04724 84-100 QE92, glutamate-substituted polymorphism GDA4_WHEAT P04724 84-100 (K)]
[3]; [8]
  responses after gluten challenge: did not substantially enhance responses
[3]; [9]
  responses after gluten challenge: did induce responses
[2]
  ELISpot response as % A-gliadin 57-73 QE65, E-substituted: 69 (20) %
  ELISpot response as % A-gliadin 57-73 QE65, Wildtype + tTG: 80 (17) %
  ELISpot response as % A-gliadin 57-73 QE65, Wild type: 14 (4) %

## PQPQPFLPQLPYPQPQS
[2]
  Elisopt response TG: 21 (11-33)
  Elisopt response No TG: 10 (0-30)

## N[C@@H](CC(=O)O)C(=O)O [D65]
[2]
  % bioactivity compared to unmodified A-gliadin 57-73 QE65: 95%
  Mean response as % of the response to the immunodominant epitope: 65%

## QLQPFLQPELPYSQPQP [Q41509 77-93 QE85, glutamate-substituted polymorphism Q41509 77-93]
[1]; naturally occurring polymorphisms of A-gliadin 57-73 QE65, 50 μg/ml plus A-gliadin 57-73 QE65 10 μg/ml, polymorphism SEQ ID NO 71
  % Inhibit. of A-gliadin 57-73 QE65 interferon gamma ELISpot response: 11%
[1]; naturally occurring polymorphisms of A-gliadin 57-73 QE65, 50 μg/ml plus A-gliadin 57-73 QE65 10 μg/ml, polymorphism SEQ ID NO 76
  % Inhibit. of A-gliadin 57-73 QE65 interferon gamma ELISpot response: 6%

## PQPQPFPPELPYPQPPP [P04726 82-98 QE90, glutamate-substituted polymorphism GDA6_WHEAT P04726 82-98 (P)]
[1]; [7]
  % Inhibit. of A-gliadin 57-73 QE65 interferon gamma ELISpot response: 5%

## QPQPFPPPELPYPQTQP [Gliα 1,6 58-74 QE66, glutamate-substituted polymorphism Gli alpha 1, 6 58-74 (J)]
[1]; [7]
  % Inhibit. of A-gliadin 57-73 QE65 interferon gamma ELISpot response: 11%

## QLQPFLQPQLPYSQPQP
[2]
  Elisopt response TG: 3 (0-7)
  Elisopt response No TG: 0 (0-1)

## LQLQPFPQPQLPYPQPQSFP [A-gliadin 56-75, 20mer of A-gliadin, used tTG-treated]
[4]; Subject 4, tTG treated peptide 0.1 μM
  spot forming cells per million CD8 depleted PBMC: 29 spot forming cells per million CD8 depleted PBMC
[4]; Subject 6, tTG treated peptide 0.1 μM
  spot forming cells per million CD8 depleted PBMC: 535 spot forming cells per million CD8 depleted PBMC
[4]; anti-CD4 and anti-CD8 magnetic bead depletion, two subjects
  cell subset mediating the IFNγ response: CD4 T cell-mediated

## PQPQPFPPELPYPQTQP [P04723 77-93 QE85, glutamate-substituted polymorphism GDA3_WHEAT P04723 77-93 (O)]
[1]; [7]
  % Inhibit. of A-gliadin 57-73 QE65 interferon gamma ELISpot response: 10%

## QLQPFPQPQLPYPQPQL
[2]
  Elisopt response TG: 83 (74-97)
  Elisopt response No TG: 19 (0-33)

## QLQPFSQPQLPYSQPQP
[2]
  Elisopt response TG: 2 (0-7)
  Elisopt response No TG: 0 (0-0)

## PQLPYPQPQLPYPQPQP
[2]
  Elisopt response TG: 109 (41-152)
  Elisopt response No TG: 3 (0-7)

## QLQPFPQPELPY [reference compound]
[5]
  Frequency: 12/17 (iTCL)
[2]
  ELISpot response as % A-gliadin 57-73 QE65, E-substituted: 8 (3) %
  ELISpot response as % A-gliadin 57-73 QE65, Wildtype + tTG: 19 (1) %
  ELISpot response as % A-gliadin 57-73 QE65, Wild type: 6 (2) %

## QLQPFPQPELSYSQPQP [Gliα 3-5 57-73 QE65, glutamate-substituted polymorphism Gli alpha 3,4, 5 57-73 (I)]
[1]; [7]
  % Inhibit. of A-gliadin 57-73 QE65 interferon gamma ELISpot response: 7%

## CC(C)C[C@H](N)C(=O)O [L65]
[1]; [6]
  % Inhibit. of A-gliadin 57-73 QE65 interferon gamma ELISpot response: 20%
[2]
  % bioactivity compared to unmodified A-gliadin 57-73 QE65: 16%
  Mean response as % of the response to the immunodominant epitope: 33%
  % agonist.: 26%

## QLQPFPQPQLPYPQPQP
[2]
  Elisopt response TG: 83 (61-113)
  Elisopt response No TG: 12 (0-20)

## N[C@@H](CS)C(=O)O [C65]
[2]
  % bioactivity compared to unmodified A-gliadin 57-73 QE65: 42%
  Mean response as % of the response to the immunodominant epitope: 62%

## LGQQQPFPPQQPYPQPQPF
[5]
  Frequency: 1/23 (bTCC)

## PQPQPFPPQLPYPQPPP
[2]
  Elisopt response TG: 19 (11-33)
  Elisopt response No TG: 10 (0-30)

## N[C@@H](Cc1c[nH]cn1)C(=O)O [H65]
[1]; [6]
  % Inhibit. of A-gliadin 57-73 QE65 interferon gamma ELISpot response: 20%
[2]
  % bioactivity compared to unmodified A-gliadin 57-73 QE65: 26%
  % agonist.: 16%
[2]; listed as Histidine
  Mean response as % of the response to the immunodominant epitope: 8%

## PQPQPFLPELPYPQPQS [P04727 79-95 QE65, glutamate-substituted polymorphism GDA7_WHEAT P04727 79-95 (M)]
[1]; [7]
  % Inhibit. of A-gliadin 57-73 QE65 interferon gamma ELISpot response: 6%

## Y70: A-gliadin 57-73 QE65 variant, Y at position 70 (QLQPFPQPELPYPYPQS)
[2]
  % bioactivity compared to unmodified A-gliadin 57-73 QE65: 129%
  greater bioactivity than the parent peptide: 30%

## PQPQPFPPQLPYPQPQS
[2]
  Elisopt response TG: 24 (11-43)
  Elisopt response No TG: 17 (0-40)

## QLQPFPQPQLPYSQPQP
[2]
  Elisopt response TG: 53 (44-67)
  Elisopt response No TG: 5 (1-7)

## GQQGYYPTSPQQSGQ
[5]
  Frequency: 1/1 (iTCC)

## PQPELPYPQPELPY [reference compound]
[5]
  Frequency: 11/17 (iTCL)
[2]
  ELISpot response as % A-gliadin 57-73 QE65, E-substituted: 48 (9) %
  ELISpot response as % A-gliadin 57-73 QE65, Wildtype + tTG: 53 (8) %
  ELISpot response as % A-gliadin 57-73 QE65, Wild type: 13 (6) %

## QLQPFPQPELPYPQPQS (listed as Triticum sp.) [A-gliadin 57-73 QE65]
[3]; [8]
  responses after gluten challenge: did not substantially enhance responses
[3]; [9]
  responses after gluten challenge: did induce responses
[2]
  Mean response as % of the response to the immunodominant epitope: 100%
  ELISpot response as % A-gliadin 57-73 QE65, E-substituted: 100%
  Elisopt response TG: 100 (100)
  ELISpot response as % A-gliadin 57-73 QE65, Wildtype + tTG: 87 (7) %
  ELISpot response as % A-gliadin 57-73 QE65, Wild type: 18 (7) %
[2]; PBMC after 3 day bread/gluten challenge
  IFNγ ELISPOT response (result in words): induced maximal responses; also recorded: most potent gliadin peptide for induction of interferon gamma
[2]; in vivo (gluten challenge), DQ2
  Frequency: 11/12 in vivo

## C[C@@H](O)[C@H](N)C(=O)O [T65]
[1]; [6]
  % Inhibit. of A-gliadin 57-73 QE65 interferon gamma ELISpot response: 28%
[2]
  % bioactivity compared to unmodified A-gliadin 57-73 QE65: 7%
  Mean response as % of the response to the immunodominant epitope: 55%
  % agonist.: 19%
